Experimental data: patent publication US8785419B2, “Cavity induced allosteric modification of intermolecular interactions and methods of identifying compounds that effect the same” (The Trustees Of The University Of Pennsylvania, priority 1998, dated 2014)

Test system: T cell activation associated with MHC/antigen/TCR complexes
Test: In vitro T cell activation assays
Assay type: cell-based

O=C(CNC(=O)N1CCCC1)NNC(=O)Nc1ccc2ccccc2c1 [Formula IV]
activity in in vitro T cell activation assays: showed activity
